From article PMC3516806 (Scientific Reports, 2012)

Target: BoGT6a (Bacteroides ovatus, UniProt A0ABU3IMV7)
Test: ITC, […]°C, HEPES pH […], no metal
Format: binding

Kd: 59 µM
Structure (SMILES): CC(=O)N[C@H]1[C@@H](OP(=O)(O)OP(=O)(O)OC[C@H]2O[C@@H](n3ccc(=O)[nH]c3=O)[C@H](O)[C@@H]2O)O[C@H](CO)[C@H](O)[C@@H]1O [UDP-GalNAc]
